# According to ChEMBL document CHEMBL3860107, “Discovery of [5-Amino-1-(2-methyl-3H-benzimidazol-5-yl)pyrazol-4-yl]-(1H-indol-2-yl)methanone (CH5183284/Debio 1347), An Orally Available and Selective Fibroblast Growth Factor Receptor (FGFR) Inhibitor” (J Med Chem, 2016):
# Activity calls are given as the source filed them. The rule behind the calls is not given here.
# What was measured:
# [1] = biological target: Vascular endothelial growth factor receptor 2 (Homo sapiens, UniProt P35968); test: Inhibition of human KDR by time-resolved fluorescence or time-resolved fluorescence assay
# [2] = biological target: Proto-oncogene tyrosine-protein kinase Src (Homo sapiens, UniProt P12931); test: Inhibition of human SRC by time-resolved fluorescence or time-resolved fluorescence assay
# [3] = Antiproliferative activity against human SNU16 cells incubated for 4 days by CCK8 assay; type: functional, cell-based; conditions: SNU-16, 96 h
# [4] = Intrinsic clearance in human liver microsomes at 1 uM in presence of NADPH incubated for 30 mins by LC/MS method; type: ADME; conditions: read-out: CLH
# [5] = Permeability from apical to basolateral side in human Caco2 cells at 10 uM incubated for 120 mins by LC-MS/MS method; type: ADME, cell-based; conditions: Caco-2, read-out: permeability
# [6] = biological target: Voltage-gated inwardly rectifying potassium channel KCNH2 (Homo sapiens, UniProt Q12809); test: Inhibition of human ERG expressed in CHO cells assessed as reduction in channel currents at -80 mV holding potential by automated whole-cell patch clamp method
# [7] = biological target: hERG (KCNH2) (Homo sapiens, UniProt Q12809); test: Inhibition of human ERG expressed in CHO cells assessed as reduction in channel currents at 10 uM at -80 mV holding potential by automated whole-cell patch clamp method; conditions: CHO cells that express hERG
# [8] = Oral bioavailability cynomolgus monkey at 1 mg/kg by LC-MS/MS method; type: ADME, organism-based, Macaca fascicularis; conditions: in vivo
# [9] = cells; conditions: Homo sapiens, HCT-116, 96 h
# Description: Antiproliferative activity against human HCT116 cells incubated for 4 days by CCK8 assay
# [10] = biological target: Fibroblast growth factor receptor 4 (Homo sapiens, UniProt P22455); test: Inhibition of human FGFR4 by time-resolved fluorescence or time-resolved fluorescence assay
# [11] = biological target: Fibroblast growth factor receptor 1 (Homo sapiens, UniProt P11362)
# Description: Inhibition of human FGFR1 by time-resolved fluorescence or time-resolved fluorescence assay
# [12] = biological target: Fibroblast growth factor receptor 3 (Homo sapiens, UniProt P22607)
# Description: Inhibition of human FGFR3 by time-resolved fluorescence or time-resolved fluorescence assay
# [13] = Antitumor activity against human SNU16 cells xenografted in CAnN.Cg-Foxn1 (nu)/CrlCrlj nu/nu BALB nu/nu mouse assessed as tumor growth inhibition at 30 mg/kg, po qd for 11 days; type: functional; conditions: SNU-16, po, 264 h, read-out: TGI
# [14] = Antitumor activity against human SNU16 cells xenografted in CAnN.Cg-Foxn1 (nu)/CrlCrlj nu/nu BALB nu/nu mouse assessed as tumor growth inhibition at 100 mg/kg, po qd for 11 days; type: functional; conditions: SNU-16, po, 264 h, read-out: TGI
# [15] = tested on: SNU-16; conditions: Homo sapiens
# [16] = tested on: KG-1; conditions: Homo sapiens
# Description: Antitumor activity against FGFR1OP-FGFR1 fusion protein expressing human KG1 cells xenografted in mouse
# [17] = tested on: MFE-280; conditions: Homo sapiens
# Description: Antitumor activity against FGFR2 S252W mutant expressing human MFE280 cells xenografted in mouse
# [18] = tested on: UM-UC-14; conditions: Homo sapiens
# Description: Antitumor activity against FGFR3 S249C mutant expressing human UM-UC-14 cells xenografted in mouse
# [19] = tested on: RT112/84; conditions: Homo sapiens
# Description: Antitumor activity against FGFR3-TACC3 mutant expressing human RT112/84 cells xenografted in mouse
# [20] = Solubility in FaSSIF at pH 6.5 irradiated ultrasonically for 10 mins and shaken for 2 hrs followed by centrifugation for 10 mins by HPLC-UV method; type: physicochemical
# [21] = Cardiotoxicity in Langendorff's isolated guinea pig heart perfusion model in assessed as induction of QTc prolongation; type: toxicity, tissue-based, Cavia porcellus
# [22] = organism: Rattus norvegicus; test: Cardiotoxicity in rat assessed as effect on blood pressure; type: toxicity, organism-based
# [23] = Cardiotoxicity in monkey assessed as effect on blood pressure; type: toxicity, Macaca mulatta; conditions: rhesus monkey
# [24] = tested on: Rattus norvegicus; test: Cardiotoxicity in telemetry instrumented rat assessed as effect on blood pressure at 30 mg/kg; type: toxicity, organism-based; conditions: in vivo
# [25] = AUC in rat at 30 mg/kg; type: ADME, organism-based; conditions: in vivo
# [26] = tested on: Mus musculus; test: Toxicity in human SNU16 cells xenografted CAnN.Cg-Foxn1 (nu)/CrlCrlj nu/nu BALB nu/nu mouse assessed as induction of body weight loss at 30 and 100 mg/kg, po qd for 11 days; type: organism-based, SNU-16; conditions: in vivo, 264 h
# Sequence of Voltage-gated inwardly rectifying potassium channel KCNH2 (Q12809 whole entry): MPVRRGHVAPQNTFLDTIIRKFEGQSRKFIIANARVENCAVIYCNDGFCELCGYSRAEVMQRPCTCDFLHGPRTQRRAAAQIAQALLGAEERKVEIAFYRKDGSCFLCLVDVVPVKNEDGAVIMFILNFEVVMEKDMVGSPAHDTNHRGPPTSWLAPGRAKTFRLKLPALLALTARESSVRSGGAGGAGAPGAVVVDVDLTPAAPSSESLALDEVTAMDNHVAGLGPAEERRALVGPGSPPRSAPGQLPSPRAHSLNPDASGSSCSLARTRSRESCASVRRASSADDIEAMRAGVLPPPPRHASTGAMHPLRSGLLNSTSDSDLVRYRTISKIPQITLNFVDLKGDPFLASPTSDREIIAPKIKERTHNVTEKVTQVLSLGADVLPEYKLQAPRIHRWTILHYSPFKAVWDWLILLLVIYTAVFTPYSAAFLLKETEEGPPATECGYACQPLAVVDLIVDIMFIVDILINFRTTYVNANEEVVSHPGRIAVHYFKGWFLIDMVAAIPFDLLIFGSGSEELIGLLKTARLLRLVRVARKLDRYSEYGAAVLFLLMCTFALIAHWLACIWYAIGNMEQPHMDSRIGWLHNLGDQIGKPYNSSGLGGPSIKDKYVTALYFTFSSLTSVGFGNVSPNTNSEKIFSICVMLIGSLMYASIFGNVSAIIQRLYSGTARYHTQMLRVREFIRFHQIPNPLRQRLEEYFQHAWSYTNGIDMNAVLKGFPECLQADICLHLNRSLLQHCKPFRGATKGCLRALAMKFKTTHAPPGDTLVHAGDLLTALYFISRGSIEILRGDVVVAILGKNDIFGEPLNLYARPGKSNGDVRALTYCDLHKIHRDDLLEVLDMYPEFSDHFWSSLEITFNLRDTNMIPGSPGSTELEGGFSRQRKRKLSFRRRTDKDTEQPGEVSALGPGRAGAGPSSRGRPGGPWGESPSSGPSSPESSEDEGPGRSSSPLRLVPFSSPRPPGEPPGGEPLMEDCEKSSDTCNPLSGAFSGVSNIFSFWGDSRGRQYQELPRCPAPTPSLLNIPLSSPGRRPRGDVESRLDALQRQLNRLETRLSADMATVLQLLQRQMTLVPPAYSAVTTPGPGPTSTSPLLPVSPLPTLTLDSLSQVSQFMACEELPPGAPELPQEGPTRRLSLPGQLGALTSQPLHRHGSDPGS
# Sequence of hERG (KCNH2) (Q12809 whole entry): as above
# Sequence of Vascular endothelial growth factor receptor 2 (P35968 whole entry): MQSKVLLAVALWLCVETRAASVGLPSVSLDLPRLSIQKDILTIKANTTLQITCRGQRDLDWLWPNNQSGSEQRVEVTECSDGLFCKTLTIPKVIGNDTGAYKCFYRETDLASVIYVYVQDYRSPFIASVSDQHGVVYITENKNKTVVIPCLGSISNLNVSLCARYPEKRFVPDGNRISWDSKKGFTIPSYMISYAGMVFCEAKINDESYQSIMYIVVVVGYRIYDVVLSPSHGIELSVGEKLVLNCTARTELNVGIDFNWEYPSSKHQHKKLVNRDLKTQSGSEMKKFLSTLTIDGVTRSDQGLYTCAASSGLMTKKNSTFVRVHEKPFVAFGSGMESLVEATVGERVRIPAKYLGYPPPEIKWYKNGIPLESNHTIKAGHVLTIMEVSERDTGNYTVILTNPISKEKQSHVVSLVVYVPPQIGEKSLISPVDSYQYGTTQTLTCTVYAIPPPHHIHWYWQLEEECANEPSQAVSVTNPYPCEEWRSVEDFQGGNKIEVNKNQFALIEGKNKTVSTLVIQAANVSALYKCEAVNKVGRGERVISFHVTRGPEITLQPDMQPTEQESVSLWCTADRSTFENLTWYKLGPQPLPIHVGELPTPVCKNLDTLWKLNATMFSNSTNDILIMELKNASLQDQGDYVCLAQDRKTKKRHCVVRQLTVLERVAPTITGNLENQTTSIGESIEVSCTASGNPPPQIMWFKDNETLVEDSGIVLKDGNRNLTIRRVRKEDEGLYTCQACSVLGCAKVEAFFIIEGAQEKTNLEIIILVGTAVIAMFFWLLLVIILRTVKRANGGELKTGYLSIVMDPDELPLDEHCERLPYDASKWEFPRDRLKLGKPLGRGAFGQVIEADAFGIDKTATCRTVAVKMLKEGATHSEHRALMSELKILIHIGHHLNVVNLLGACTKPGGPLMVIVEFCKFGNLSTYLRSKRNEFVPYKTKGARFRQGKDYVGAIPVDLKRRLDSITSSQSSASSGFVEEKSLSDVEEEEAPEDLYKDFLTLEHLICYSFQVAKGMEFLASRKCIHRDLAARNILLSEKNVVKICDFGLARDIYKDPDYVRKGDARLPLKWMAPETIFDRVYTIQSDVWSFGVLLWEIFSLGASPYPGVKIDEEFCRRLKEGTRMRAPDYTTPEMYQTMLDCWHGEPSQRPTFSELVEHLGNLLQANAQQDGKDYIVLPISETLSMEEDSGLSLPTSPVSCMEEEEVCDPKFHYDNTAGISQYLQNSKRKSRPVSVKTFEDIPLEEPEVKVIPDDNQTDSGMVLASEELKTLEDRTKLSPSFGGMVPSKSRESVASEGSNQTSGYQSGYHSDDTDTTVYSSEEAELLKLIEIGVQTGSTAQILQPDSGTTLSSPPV
# Sequence of Proto-oncogene tyrosine-protein kinase Src (P12931 2-536 limits assumed): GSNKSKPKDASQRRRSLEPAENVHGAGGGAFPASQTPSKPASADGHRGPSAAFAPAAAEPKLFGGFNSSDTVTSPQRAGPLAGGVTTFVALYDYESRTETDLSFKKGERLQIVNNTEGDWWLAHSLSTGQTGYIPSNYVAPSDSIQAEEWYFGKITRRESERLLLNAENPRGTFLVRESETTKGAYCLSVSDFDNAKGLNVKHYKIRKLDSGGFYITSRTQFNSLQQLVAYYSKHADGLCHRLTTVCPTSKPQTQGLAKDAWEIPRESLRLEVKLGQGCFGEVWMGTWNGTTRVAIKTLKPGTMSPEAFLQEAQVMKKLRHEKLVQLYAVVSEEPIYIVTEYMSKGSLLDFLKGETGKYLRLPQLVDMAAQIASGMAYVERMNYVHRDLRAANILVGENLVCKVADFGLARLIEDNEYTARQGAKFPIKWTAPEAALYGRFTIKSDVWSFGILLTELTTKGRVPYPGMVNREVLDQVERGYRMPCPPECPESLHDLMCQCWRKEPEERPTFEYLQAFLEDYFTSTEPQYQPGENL
# Sequence of Fibroblast growth factor receptor 4 (P22455 whole entry): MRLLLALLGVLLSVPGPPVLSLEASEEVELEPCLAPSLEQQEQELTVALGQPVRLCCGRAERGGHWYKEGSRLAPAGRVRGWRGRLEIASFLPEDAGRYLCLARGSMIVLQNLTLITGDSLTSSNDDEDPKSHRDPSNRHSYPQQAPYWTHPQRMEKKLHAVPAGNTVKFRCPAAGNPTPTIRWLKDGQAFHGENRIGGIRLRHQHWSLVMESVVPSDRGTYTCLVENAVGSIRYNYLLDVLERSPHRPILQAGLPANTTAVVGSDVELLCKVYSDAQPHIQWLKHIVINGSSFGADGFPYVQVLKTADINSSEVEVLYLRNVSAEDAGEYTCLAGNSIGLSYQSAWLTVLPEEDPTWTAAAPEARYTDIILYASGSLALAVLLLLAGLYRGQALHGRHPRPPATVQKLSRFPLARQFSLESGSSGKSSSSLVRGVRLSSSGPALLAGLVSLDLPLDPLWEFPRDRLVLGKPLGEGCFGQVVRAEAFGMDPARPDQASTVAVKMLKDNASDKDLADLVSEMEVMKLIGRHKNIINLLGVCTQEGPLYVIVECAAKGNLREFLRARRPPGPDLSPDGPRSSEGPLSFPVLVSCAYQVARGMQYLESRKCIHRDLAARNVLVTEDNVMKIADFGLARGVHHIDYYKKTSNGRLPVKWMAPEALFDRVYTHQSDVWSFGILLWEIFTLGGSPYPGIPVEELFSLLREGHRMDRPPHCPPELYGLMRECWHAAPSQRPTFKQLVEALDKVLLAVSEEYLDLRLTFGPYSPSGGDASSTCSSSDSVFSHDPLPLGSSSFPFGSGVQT
SMILES,IC50 [1],IC50 [3],microsomal CLint at 1 µM [4],IC50 [6],inhibition at 10 µM [7],IC50 [9],solubility at 2 h [20],also measured
Cc1nc2cc(-n3ncc(C(=O)c4cc5ccc(Br)cc5[nH]4)c3N)ccc2[nH]1,290 nM,52 nM,4.2 µL/min/mg,> 10000 nM,31%,11000 nM,–,"IC50 [2]: > 50000 nM; Papp A→B at 2 h, 10 µM [5]: 2.2 ×10⁻⁶ cm/s; bioavailability [8]: 20%"
Nc1c(C(=O)c2cc3ccccc3[nH]2)cnn1-c1ccc2[nH]c(=O)[nH]c2c1,2700 nM,–,–,–,–,–,–,IC50 [10]: > 50000 nM; IC50 [11]: > 50000 nM; IC50 [12]: > 50000 nM
Cc1nc2ccc(-n3ncc(C(=O)c4cc5ccccc5[nH]4)c3N)cc2[nH]1 [FGFR INHIBITOR DEBIO 1347],–,17 nM,–,–,–,5900 nM,–,inhibition in vivo at 30 mg/kg [13]: 106%; inhibition in vivo at 100 mg/kg [14]: 147%; AUC [15]: 26000 ng·h/mL; TGI [16]: Active; TGI [17]: Active; TGI [18]: Active; TGI [19]: Active
Nc1c(C(=O)c2cc3ccccc3[nH]2)cnn1-c1ccc2nc[nH]c2c1,340 nM,380 nM,4.2 µL/min/mg,–,–,17000 nM,37 µg/mL,–
Nc1c(C(=O)c2ccc3ncccc3c2)cnn1-c1cc(O)ccc1Cl,1600 nM,8900 nM,–,–,–,9300 nM,–,–
CCc1nc2cc(-n3ncc(C(=O)c4cc5ccccc5[nH]4)c3N)ccc2[nH]1,1700 nM,77 nM,23 µL/min/mg,–,–,1500 nM,42 µg/mL,–
Nc1c(C(=O)c2cc3cc(CN4CCOCC4)ccc3[nH]2)cnn1-c1cc(O)ccc1Cl,2.4 nM,550 nM,20 µL/min/mg,–,–,3600 nM,40 µg/mL,–
Nc1c(C(=O)c2cc3ccccc3o2)cnn1-c1cc(O)ccc1Cl,170 nM,3300 nM,–,–,–,8200 nM,–,–
Nc1c(C(=O)c2cc3ccccc3[nH]2)cnn1-c1ccc2[nH]ccc2c1,–,190 nM,4.4 µL/min/mg,–,–,470 nM,4 µg/mL,–
Cc1ccc2cc(C(=O)c3cnn(-c4ccc5nc(C)[nH]c5c4)c3N)[nH]c2c1,370 nM,–,140 µL/min/mg,6900 nM,64%,9700 nM,–,–
Nc1c(C(=O)c2cc3ccccc3[nH]2)cnn1-c1cc(O)ccc1Cl,28 nM,360 nM,15 µL/min/mg,–,–,2600 nM,20 µg/mL,–
Cc1cc2cc(-n3ncc(C(=O)c4cc5ccccc5[nH]4)c3N)ccc2[nH]1,–,53 nM,10 µL/min/mg,–,–,5300 nM,10 µg/mL,–
Cc1cccc(C(=O)c2cnn(-c3cc(O)ccc3Cl)c2N)c1,2900 nM,15000 nM,–,–,–,> 20000 nM,–,–
Cc1nc2cc(-n3ncc(C(=O)c4cc5ccc(CN6CCC(F)(F)CC6)cc5[nH]4)c3N)ccc2[nH]1,280 nM,6 nM,14 µL/min/mg,8600 nM,58%,–,–,bioavailability [8]: 5%
Cc1nc2cc(-n3ncc(C(=O)c4cc5ccc(CN6CCOCC6)cc5[nH]4)c3N)ccc2[nH]1,120 nM,2.6 nM,9.6 µL/min/mg,> 10000 nM,15%,–,–,bioavailability [8]: 0%
Cc1nc2cc(-n3ncc(C(=O)c4cc5ccc(-c6ccccc6)cc5[nH]4)c3N)ccc2[nH]1,3400 nM,84 nM,3.2 µL/min/mg,> 10000 nM,15%,–,–,IC50 [2]: > 50000 nM; bioavailability [8]: 3%
Cc1nc2cc(-n3ncc(C(=O)c4cc5ccccc5[nH]4)c3N)ccc2[nH]1 [FGFR INHIBITOR DEBIO 1347],2100 nM,–,13 µL/min/mg,6900 nM,69%,–,29 µg/mL,IC50 [10]: 290 nM; IC50 [2]: 5900 nM; bioavailability [8]: 30%; Activity [21]: Non-Toxic; Activity [22]: Non-Toxic; Activity [23]: Non-Toxic; Activity [24]: Non-Toxic; AUC [25]: 102 µg·h/mL; Activity [26]: Non-Toxic
Nc1c(C(=O)c2cc3ccccc3[nH]2)cnn1-c1ccccc1Cl,410 nM,2900 nM,–,–,–,2700 nM,–,–
Cc1nc2ccc(-n3ncc(C(=O)c4cc5cc(CN6CCOCC6)ccc5[nH]4)c3N)cc2[nH]1,210 nM,17 nM,15 µL/min/mg,> 10000 nM,7%,8900 nM,–,–
Cc1nc2cc(-n3ncc(C(=O)c4cc5ccc(S(C)(=O)=O)cc5[nH]4)c3N)ccc2[nH]1,1000 nM,82 nM,5.4 µL/min/mg,–,–,37000 nM,–,–
